Measurements as given in patent US20260000645A1, “USE OF EBSELEN OR ONE OF THE DERIVATIVES THEREOF TO TREAT MITOCHONDRIAL PATHOLOGIES OR DYSFUNCTIONS” (ASSOCIATION FRANCAISE CONTRE LES MYOPATHIES, priority 2022, published 2026).

Tested on: Cox2 protein in mutant yeast strain sym1
Experiment: Accumulation of Cox2 protein in sym1
Type: cell-based, Saccharomyces cerevisiae
Details: EBS 1 μM, compared to non-treated cells
Description: Total protein extracts from the mutant yeast strain were analyzed by SDS-PAGE ([…] per well) using antibodies against the indicated proteins. The gels shown are representative of at least 3 experiments. Protein levels were quantified using the ImageJ software. The levels of Cox2 were normalized with respect to Ade13p and expressed with respect to the wild type (WT) strain.
The experiments described in example 2 were implemented on the mutant yeast strain sym1.
The data are the averages ±SEM of at least three independent experiments. The significance of the variations between samples and the controls were estimated using the multi-factorial Anova: Tukey test.

With `O=c1c2ccccc2[se]n1-c1ccccc1` [ebselen, 2-phenyl-1,2-benzisoselenazol-3(2H)-one] the “level of Cox2” value was “increased”.
